As a reminder, the IC50 is the concentration that gives 50% inhibition. Read a low IC50 as greater potency.

Our source for the IC50 values is ChEMBL document CHEMBL5725462, “Substituted triazolopyridines” (2017).

In this assay the target is T1, Dual specificity protein kinase TTK (Homo sapiens, UniProt P33981).
T1 sequence (P33981 whole entry): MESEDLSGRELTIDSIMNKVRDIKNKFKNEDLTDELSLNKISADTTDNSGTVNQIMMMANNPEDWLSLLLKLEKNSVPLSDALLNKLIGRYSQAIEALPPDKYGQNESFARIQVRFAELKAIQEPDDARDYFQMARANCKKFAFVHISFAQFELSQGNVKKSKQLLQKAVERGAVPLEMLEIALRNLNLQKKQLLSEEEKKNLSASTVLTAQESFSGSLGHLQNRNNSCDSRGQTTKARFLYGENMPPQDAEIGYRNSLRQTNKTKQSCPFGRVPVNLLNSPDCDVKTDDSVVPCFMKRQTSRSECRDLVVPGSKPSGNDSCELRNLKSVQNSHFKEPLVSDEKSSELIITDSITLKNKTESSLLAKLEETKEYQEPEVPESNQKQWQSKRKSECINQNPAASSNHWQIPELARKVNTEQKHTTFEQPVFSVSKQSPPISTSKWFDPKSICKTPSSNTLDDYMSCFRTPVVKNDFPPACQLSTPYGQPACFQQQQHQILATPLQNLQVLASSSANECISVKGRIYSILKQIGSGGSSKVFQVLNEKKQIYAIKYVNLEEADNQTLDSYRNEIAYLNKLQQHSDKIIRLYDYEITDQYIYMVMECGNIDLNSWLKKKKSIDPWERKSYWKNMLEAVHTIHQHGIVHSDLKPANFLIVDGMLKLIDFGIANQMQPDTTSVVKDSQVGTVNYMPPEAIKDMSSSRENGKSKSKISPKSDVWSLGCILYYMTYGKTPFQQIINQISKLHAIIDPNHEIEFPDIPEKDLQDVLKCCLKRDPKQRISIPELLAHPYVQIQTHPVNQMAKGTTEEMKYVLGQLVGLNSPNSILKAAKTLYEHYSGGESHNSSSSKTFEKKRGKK
In words: The concentration of Mps-1 in the assay was adjusted to the activity of the enzyme lot and was chosen appropriate to have the assay in the linear range, typical enzyme concentrations were in the range of about 1 nM (final conc. in the 5 μl assay volume).

In turn, `COc1cc(C(=O)N2CC3(COC3)C2)ccc1Nc1nc2ccc(-c3ccc(C(=O)NCc4ccc(F)cc4)nc3)cn2n1` showed a concentration for half-maximal inhibition (IC50) of less than 1 nM.
